Source: US12116357B2, “Heteroaryl-triazole and heteroaryl-tetrazole compounds as pesticides” (Bayer Aktiengesellschaft, priority 2018, dated 2024)
Where two headings read alike, the source gives them in different places.

How the values were obtained:
[1] = system: Ctenocephalides felis; experiment: Ctenocephalides felis oral test; format: in vivo; details: 48 h, 100 ppm in cattle blood, after 2 days
Procedure: (§1) • Solvent: dimethyl sulfoxide
To produce a suitable preparation of active compound, 10 mg of active compound are dissolved in 0.5 ml solvent, and the concentrate is diluted with cattle blood to the desired concentration.
Approximately 20 adult unfed cat fleas (Ctenocephalides felis) are placed in flea chambers. The blood chamber, sealed with parafilm on the bottom, are filled with cattle blood supplied with compound solution and placed on the gauze covered top of the flea chamber, so that the fleas are able to suck the blood. The blood chamber is heated to 37° C. whereas the flea chamber is kept at room temperature.
After 2 days mortality in % is determined. 100% means all the fleas have been killed; 0% means none of the fleas have been killed.

[2] = system: Spodoptera frugiperda; experiment: Spodoptera frugiperda spray test; format: in vivo; details: 168 h
Procedure: • Solvent: 78.0 parts by weight acetone • 1.5 parts by weight dimethylformamide • Emulsifier: alkylarylpolyglycol ether
(§2) To produce a suitable preparation of active compound, 1 part by weight of active compound is mixed with the stated amount of solvents and is diluted with water, containing an emulsifier concentration of 1000 ppm, to the desired concentration. Further test concentrations are prepared by dilution with emulsifier containing water.
Maize (Zea mays) leaf sections are sprayed with a preparation of the active ingredient of the desired concentration. Once dry, the leaf sections are infested with fall armyworm larvae (Spodoptera frugiperda).
After 7 days mortality in % is determined. 100% means all caterpillars have been killed and 0% means none of the caterpillars have been killed.

[3] = system: Myzus persicae; experiment: Myzus persicae oral test; format: in vivo; details: 120 h
Procedure: • Solvent: 100 parts by weight acetone
To produce a suitable preparation of active compound, 1 part by weight of active compound is mixed with the stated amount of solvent, and the concentrate is diluted with water to the desired concentration. 50 μl compound solution is filled in microtiter plates and 150 μl IPL41 insect medium (33%+15% sugar) is added to obtain a total volume of 200 μl per well. Afterwards the plates are sealed with parafilm through which a mixed population of the green peach aphid (Myzus persicae) can suck on the compound preparation.
After 5 days mortality in % is determined. 100% means all aphids have been killed and 0% means none of the aphids have been killed.

[4] = system: Phaedon cochleariae; experiment: Phaedon cochleariae spray test; format: in vivo; details: 168 h, after 7 days
Procedure: (§3) • Solvent: 78.0 parts by weight of acetone • 1.5 parts by weight of dimethylformamide • Emulsifier: alkylarylpolyglycol ether
as §2
Chinese cabbage (Brassica pekinensis) leaf disks are sprayed with a preparation of the active ingredient of the desired concentration. Once dry, the leaf disks are infested with mustard beetle larvae (Phaedon cochleariae).
After 7 days mortality in % is determined. 100% means all beetle larvae have been killed and 0% means none of the beetle larvae have been killed.

[5] = system: Aedes aegypti strain MONHEIM; experiment: Aedes aegypti test (surface treatment & contact assay); format: in vivo; details: 24 hours after contact, read-out: efficacy (mortality); for mortality at 20 mg/m2: surface concentration 20 mg/m^2, 30 min exposure
Procedure: (§4) • Solvent: Aceton+2000 ppm rapeseed oil methyl ester (RME)
(§5) In order to produce a sufficient, active ingredient containing solution it is necessary to solve the test compound in the solvent-mix (acetone at 2 mg/ml/RME 2000 ppm). This solution is pipetted onto a glazed tile and after evaporation of the acetone, adult mosquitoes of the species Aedes aegypti strain MONHEIM are placed onto the dried surface. The exposure time is 30 minutes.
(§6) Mortality in percent (%) is determined 24 hours after contact of the insects to the treated surface. 100% mortality means that all tested insects are dead, whereas 0% means that no insect died.

[6] = system: Boophilus microplus; experiment: Boophilus microplus injection test; format: in vivo; details: Rhipicephalus microplus, 168 h, 20 μg/animal, egg deposition after 7 days, read-out: efficacy (infertile eggs)
Procedure: as §1
To produce a suitable preparation of active compound, 10 mg of active compound are dissolved in 0.5 ml solvent, and the concentrate is diluted with solvent to the desired concentration.
Five adult engorged female ticks (Boophilus microplus) are injected with 1 μl compound solution into the abdomen. The ticks are transferred into replica plates and incubated in a climate chamber.
After 7 days egg deposition of fertile eggs is monitored. Eggs where fertility is not visible are stored in a climate chamber till hatching after about 42 days. An efficacy of 100% means all eggs are infertile; 0% means all eggs are fertile.

[7] = system: Nezara viridula; experiment: Nezara viridula spray test; format: in vivo; details: 96 h
Procedure: as §3
as §2, with “solvent,” for “solvents”, “and the concentrate” for “and”
Barley plants (Hordeum vulgare) infested with larvae of the southern green stink bug (Nezara viridula) are sprayed with a test solution containing the desired concentration of the active ingredient.
After 4 days mortality in % is determined. 100% means all the stink bugs have been killed; 0% means none of the stink bugs have been killed.

[8] = system: Nilaparvata lugens; experiment: Nilaparvata lugens spray test; format: in vivo; details: 96 h
Procedure: as §3, §2
Rice plants (Oryza sativa) are sprayed with a preparation of the active ingredient of the desired concentration and the plants are infested with the brown planthopper (Nilaparvata lugens).
After 4 days mortality in % is determined. 100% means all planthoppers have been killed and 0% means none of the planthoppers have been killed.

[9] = system: Musca domestica strain WHO-N; experiment: Musca domestica test (surface treatment & contact assay); format: in vivo; details: 24 hours after contact, read-out: efficacy (mortality)
Procedure: as §4
as §5, with “flies” for “mosquitoes”, “Musca domestica” for “Aedes aegypti”, “WHO-N” for “MONHEIM”
as §6

[10] = system: Ctenocephalides felis; experiment: Ctenocephalides felis in-vitro contact test, adult cat flea; format: in vivo; details: 5 μg/cm^2, after 48 hours, read-out: efficacy (fleas dead or moribund)
Procedure: 9 mg compound is solved in 1 ml acetone and diluted with acetone to the desired concentration. 250 μl of the test solution is filled in 25 ml glass test tubes and homogeneously distributed on the inner walls by rotation and tilting on a shaking device (2 h at 30 rpm). With a compound concentration of 900 ppm, an inner surface of 44.7 cm^2 and a homogeneous distribution, a dose of 5 μg/cm^2 is achieved.
After the solvent has evaporated, each test tube is filled with 5-10 adult cat fleas (Ctenocephalides felis), closed with a perforated lid and incubated in a lying position at room temperature and relative humidity. After 48 hours efficacy is determined. The fleas are patted on the ground of the tubes and are incubated on a heating plate at 45-50° C. for at most 5 minutes. Immotile or uncoordinated moving fleas, which are not able to escape the heat by climbing upwards, are marked as dead or moribund.
An efficacy of 100% means all fleas are dead or moribund; 0% means no fleas are dead or moribund.

[11] = log P by HPLC on reversed phase columns (EEC directive 79/831 Annex V.A8); format: physicochemical; details: reversed phase HPLC column, LC-UV, neutral range
[12] = surface concentration 4 mg/m^2, 30 min exposure
[13] = 0.001 molar ammonium acetate in water and acetonitrile (table footnote), read-out: LogP^[a]

Structure (SMILES): CC(c1ncnn1-c1ncccn1)N(CC1(c2ccccc2)CC1)C(=O)c1cc(Cl)cc(C(F)(F)F)c1 (centres unmarked) [Example I-006]
- mortality at 100 ppm [1]: 100%
- mortality at 500 g/ha [2]: 100%
- mortality at 20 ppm [3]: 90%
- mortality at 500 g/ha [4]: 100%
- mortality at 20 mg/m2 [5]: 90 to 100%

Structure (SMILES): CC(c1ncnn1-c1ncccn1)N(CC1CCOCC1)C(=O)c1cc(Cl)cc(C(F)(F)F)c1 (centres unmarked) [Example I-008]
- mortality at 20 ppm [3]: 100%
- mortality at 500 g/ha [4]: 100%

Structure (SMILES): CC(c1ncnn1-c1ncccn1)N(CC1(C)CC1)C(=O)c1cc(Cl)cc(C(F)(F)F)c1 (centres unmarked) [Example I-009]
- pest or weed control at 0.02 mg [6]: 80%
- mortality at 100 ppm [1]: 100%
- mortality at 500 g/ha [7]: 100%
- mortality at 500 g/ha [2]: 100%
- mortality at 4 ppm [3]: 100%
- mortality at 20 ppm [3]: 100%
- mortality at 500 g/ha [4]: 100%

Structure (SMILES): CC(c1ncnn1-c1ncccn1)N(CC1CCCO1)C(=O)c1cc(Cl)cc(C(F)(F)F)c1 (centres unmarked) [Example I-012]
- mortality at 20 ppm [3]: 100%

Structure (SMILES): CC(c1ncnn1-c1ncccn1)N(Cc1ccncc1)C(=O)c1cc(Cl)cc(C(F)(F)F)c1 (centres unmarked) [Example I-014]
- mortality at 500 g/ha [8]: 100%
- pest or weed control at 0.02 mg [6]: 100%
- mortality at 100 ppm [1]: 100%
- mortality at 500 g/ha [7]: 100%
- mortality at 500 g/ha [2]: 100%
- mortality at 4 ppm [3]: 100%
- mortality at 20 ppm [3]: 100%
- mortality at 500 g/ha [4]: 100%

Structure (SMILES): CC(c1ncnn1-c1ncccn1)N(CC1CCOC1)C(=O)c1cc(Cl)cc(C(F)(F)F)c1 (centres unmarked) [Example I-015]
- pest or weed control at 0.02 mg [6]: 100%
- mortality at 100 ppm [1]: 100%
- mortality at 500 g/ha [2]: 100%
- mortality at 20 ppm [3]: 100%
- mortality at 500 g/ha [4]: 100%

Structure (SMILES): CC(c1ncnn1-c1ncccn1)N(Cc1ccc(C#N)cc1)C(=O)c1cc(Cl)cc(C(F)(F)F)c1 (centres unmarked) [Example I-018]
- mortality at 4 mg/m2 [9, 12]: 90 to 100%
- mortality at 20 mg/m2 ([9]; surface concentration 20 mg/m^2, 30 min exposure): 90 to 100%
- pest or weed control at 0.02 mg [6]: 90%
- mortality at 100 ppm [1]: 100%
- mortality at 500 g/ha [7]: 100%
- mortality at 500 g/ha [2]: 100%
- mortality at 4 ppm [3]: 100%
- mortality at 20 ppm [3]: 100%
- mortality at 500 g/ha [4]: 100%
- mortality at 4 mg/m2 [5, 12]: 80 to 100%
- mortality at 20 mg/m2 [5]: 90 to 100%

Structure (SMILES): CC(c1ncnn1-c1ncccn1)N(Cc1cccnc1)C(=O)c1cc(Cl)cc(C(F)(F)F)c1 (centres unmarked) [Example I-019]
- mortality at 500 g/ha [8]: 100%
- pest or weed control at 0.02 mg [6]: 100%
- mortality at 100 ppm [1]: 90%
- mortality at 500 g/ha [7]: 100%
- mortality at 500 g/ha [2]: 100%
- mortality at 4 ppm [3]: 100%
- mortality at 20 ppm [3]: 100%
- mortality at 500 g/ha [4]: 100%
- mortality at 20 mg/m2 [5]: 90 to 100%

Structure (SMILES): COc1ccc(CN(C(=O)c2cc(Cl)cc(C(F)(F)F)c2)C(C)c2ncnn2-c2ncccn2)cc1 (centres unmarked) [Example I-020]
- pest or weed control at 0.02 mg [6]: 80%
- mortality at 100 ppm [1]: 100%
- mortality at 500 g/ha [7]: 100%
- mortality at 20 ppm [3]: 100%

Structure (SMILES): CC(c1ncnn1-c1ncccn1)N(C(=O)c1cc(Cl)cc(C(F)(F)F)c1)C1CSC1 (centres unmarked) [Example I-024]
- mortality at 500 g/ha [8]: 100%
- mortality at 100 ppm [1]: 100%
- pest or weed control at 5 µg/cm2 [10]: 100%
- mortality at 500 g/ha [7]: 100%
- mortality at 4 ppm [3]: 100%
- mortality at 20 ppm [3]: 100%
- mortality at 500 g/ha [4]: 100%

Structure (SMILES): CC(NCc1ccccn1)c1ncnn1-c1ncccn1 (centres unmarked) [a-001, N-(pyridin-2-ylmethyl)-1-[1-(pyrimidin-2-yl)-1H-1,2,4-triazol-5-yl]ethanamine]
- chromatographic logP [11, 13]: 0.72
- chromatographic logP ([11]; 0.001 molar ammonium acetate in water and acetonitrile, read-out: log P^[b]): 0.77

Structure (SMILES): CC(NC1CC1)c1ncnn1-c1ncccn1 (centres unmarked) [a-002]
- chromatographic logP [11, 13]: 0.75

Structure (SMILES): CC(NCC1CCOCC1)c1ncnn1-c1ncccn1 (centres unmarked) [a-003]
- chromatographic logP [11, 13]: 0.85

Structure (SMILES): CC(NCC1CCCC1)c1ncnn1-c1ncccn1 (centres unmarked) [a-004]
- chromatographic logP [11, 13]: 1.67

Structure (SMILES): CC(NCC1(c2ccccc2)CC1)c1ncnn1-c1ncccn1 (centres unmarked) [a-005]
- chromatographic logP [11, 13]: 1.9

Structure (SMILES): COCCNC(C)c1ncnn1-c1ncccn1 (centres unmarked) [a-006]
- chromatographic logP [11, 13]: 0.52

Structure (SMILES): CC(NCC1CSC1)c1ncnn1-c1ncccn1 (centres unmarked) [a-007]
- chromatographic logP [11, 13]: 1.12

Structure (SMILES): CC(NCC1CS(=O)(=O)C1)c1ncnn1-c1ncccn1 (centres unmarked) [a-008]
- chromatographic logP [11, 13]: 0.51
